According to US10532084B2, “Chondrocyte extracellular matrix-derived peptide” (EYEBIO KOREA, priority 2016, dated 2020):
“Also recorded” adds a separate entry of the source.

Legend:
[1] = test system: human vascular endothelial cells (HUVEC); test: Tubing assay (VEGF-induced tube formation); format: cell-based; conditions: 4 hours
Experimental: The antiangiogenic effect of hydroxy proline-GQDGLAGPK was confirmed by tubing assay using human vascular endothelial cells (HUVEC).
HUVEC cells were stained with calcein-AM and then dispensed on a Matrigel-coated 48-well plate, treated with collagen, CPI and CPII at concentrations together with 50 ng/ml of recombinant human VEGF, and after 4 hours of incubation at 37° C., tube formation was observed by fluorescence microscopy (Leica) and tube length was analyzed by Image lab software (Bio-Rad Laboratories).
Tubing assay using human vascular endothelial cells (HUVEC) was performed to confirm the anti-angiogenic effect of hydroxyl proline-GQDGLAGPK.

[2] = test system: TNF-α, ICAM-1, VCAM-1, MMP-2 and MMP-9; conditions: 10 days of treatment after removal of dry stress
Experimental: (§1) NOD.B10.H2^b mice were purchased from Jackson Laboratory (Bar Harbor, Me., USA). Animal experiments were carried out in accordance with the guidelines approved by the University of Inje (No.; 2014-029) and ARVO regarding animal use for eye and vision research. NOD.B10.H2^b mice at 12-16 weeks old were exposed to 40-50% ambient humidity and ventilation using a fan for 18 hours a day as dry stress and subcutaneously injected with 0.5 mg/0.2 mL muscarinic receptor blocker. In addition, scopolamine hydrobromide (Sigma-Aldrich, St. Louis, Mo.) was injected alternately to the […] hips four times a day for 10 days at 9 am, […].
(§2) After 10 days of ocular dry stress, the scopolamine injection was stopped, and switched to a normal humidity and temperature environment and the dry stress was removed, 10 mg/ml Hyp-[…] and collagen were dissolved in normal saline to administer 5 μL each 5 times a day for 10 days, and normal saline and 0.1% HA were administered to the eyeball 5 times a day for 10 days. Three mice were used in each of the six experimental groups using both eyes of the mice and all experiments were repeated.

[3] = Tear amount by phenol red-impregnated cotton threads, dry eye model; format: in vivo, NOD.B10.H2b mice
Experimental: Tear production was measured by a method reported using phenol red-impregnated cotton threads (Zone-Quick, Oasis, Glendora, Calif.) (Villareal A L, Farley W, Pflugfelder S C. Effect of topical ophthalmic epinastine and olopatadine on tear volume in mice. Eye Contact Lens. 2006; 32 (6): 272-276.). […] The measured lachrymal fluid in the millimeter was compared with a standard curve expressed as a cotton thread which was soaked with the expected tear amount of mouse of basic solution ([…] of 0.9% salt and 5 mL of 5 N NaOH) for 20 seconds.
The degree of tear generation was measured by phenol red-impregnated cotton threads.

[4] = test system: VEGF, ICAM and MCP-1; test: Quantitative real-time RT-PCR of retina and choroid, laser CNV model; format: in vivo, C57BL/6 mice; conditions: mouse, 14 days after laser, 5 μg
Experimental: In order to confirm the inhibitory effect of hydroxy proline-GQDGLAGPK on neovascularization-related gene expression, RNA was extracted using RNeasy Mini kit (Qiagen) in mixture of retina and choroid of extracted mice eyeballs, and cDNA was synthesized by using oligo(dT) primer and reverse transcriptase. PCR products were amplified using the specific primer set (COSMOGENETECH, Korea) shown in Table 1 and SYBR Green PCR 2X PreMix (Enzynomics) and for the PCR conditions, the samples were incubated at 95° C. for 10 minutes, and 40 PCR cycles at 95° C. for 15 seconds, 60° C. for 30 seconds and 72° C. for 15 seconds, were performed. Relative quantification was calculated using 2-(DDCT) method [Livak and Schmittgen, 2001; DDCT=(CT, target-CT, actin) control group (CT, target-CT, actin) control group].
After 14 days of laser irradiation in mouse, RNA was extracted from retina and choroid to analyze the gene expression by real-time RT-PCR.

[5] = test system: corneal surface; test: Corneal surface irregularity (smoothness) score, dry eye model; format: in vivo, NOD.B10.H2b mice
Experimental: as §1, §2
As for the curvature of the corneal surface, a reflected image of the white ring was obtained from an optical fiber ring illumination of a stereoscopic microscope (SZX7; Olympus) after anesthetizing the animal. Corneal smoothness was assessed by grading the irregularity of corneal epithelial cells reflected in the white ring of the digital image. Corneal irregularity severity score was calculated by dividing the reflection ring into quadrants and grading into 5 grades according to degree of irregularity. No irregularity is grade 0, irregularity of ¼ (quarter) is grade 1; irregularity of 2/4 (two-quarters) is grade 2; irregularity of ¾ (three-quarters) is grade 3; entire irregularity is grade 4; and […] and thus all the rings were confirmed.
The degree of corneal curvature in each experiment group was quantified to confirm the bendability of the corneal surface.

[6] = test system: macrophages, TNFα, ICAM-1, IL-1β, IL-6 and MMP-9; conditions: rabbit alkaline burn; 10 days treatment; immunostaining
Experimental: (§3) The rabbits were randomly divided into an alkaline burn group (n=5) and a peptide treated group (n=5). In the alkaline burn group, normal saline was administered 4 times daily and in the peptide-treated group, Hyp-[…] peptide of 10 mg/mL was administered 4 times daily, and the left eye was used as a control group.
(§4) Tissue sections were cut into 6 μm thickness and used for immunohistochemical analysis.
(§5) First, tissue sections were fixed with 3.5% paraformaldehyde and permeated with 0.1% Triton X-100, inactivated 2% bovine serum albumin (BSA; all from Sigma, St. Louis, Mo.) and incubated overnight at 4° C. with anti-CD31(1:1,000; Abcam Inc., Cambridge, Mass.), anti-bFGF(1:1,000; Bioss Inc., Woburn, Mass.), anti-IL-1β, anti-IL-6(1:1,000; Cloud-Clone Corp., Houston, Tex.), anti-MMP-9, anti-ICMA-1, anti-TNFα, anti-macrophage/mononucleus (1:1,000; Abnova Crop., Taipei, Taiwan) and anti-VEGF-A (Abbiotec, San Diego, Calif.) primary antibody.
(§6) Thereafter, the secondary antibody was incubated for 45 minutes in the section and the immunological response was visualized with diaminobenzidine (DAB) chromogen, and the section was contrast-stained with Mayer's hematoxylin (Sigma) for 30 seconds at room temperature.
(§7) The dyed sections were photographed by a virtual microscope (NanoZoomer 2.0 RS, Hamamatsu, Japan).

[7] = test system: CD31, FGF and VEGF; conditions: rabbit alkaline burn; 10 days treatment; immunostaining
Experimental: as §3, §4, §5, §6, §7

hydroxy proline-GQDGLAGPK [Hyp-GQDGLAGPK]
concentration dependence of tube formation inhibition ([1]; 50 ng/ml VEGF): concentration-dependent manner
tube formation compared with the VEGF-untreated group ([1]; 50 ng/ml VEGF): decreased to almost same extent of angiogenesis of the VEGF-untreated group
inhibition of tube formation (angiogenesis) ([1]; 50 ng/ml recombinant human VEGF, listed as CPII): significant inhibition of angiogenesis; also recorded: best anti-angiogenic efficacy; also recorded: best anti-angiogenic ability
expression of inflammation-related factors in the lacrimal gland compared with CsA, DQS and HA treated mice [2]: significantly inhibited
expression of inflammation-related factors (TNF-α, ICAM-1, VCAM-1, MMP-2, MMP-9) in the lacrimal gland ([2]; immunostaining): markedly reduced
tear amount increase vs DS 10D group ([3]; 10 days after treatment): 7.9 times
tear amount relative to CsA treatment group ([3]; 10 days after treatment): 1.7 times
tear amount relative to DQS treatment group ([3]; 10 days after treatment): 1.4 times
tear amount relative to HA treatment group ([3]; 10 days after treatment): 1.6 times
tear amount relative to collagen positive control group ([3]; 10 days after treatment): about 1.7 times
tear amount relative to normal saline negative control group ([3]; 10 days after treatment): about 2.8 times
tear amount ([3]; 10 days of treatment after removal of dry stress, normal 0.22±0.01, DS 10D 0.03±0.01): 0.23 ± 0.02 µL
MCP-1 gene expression in retina and choroid ([4]; laser-treated group increased about 10 times): significantly decreased
VEGF gene expression in retina and choroid ([4]; laser-treated group increased about 55 times): decreased to the level similar to that of the laser-untreated group
ICAM gene expression in retina and choroid ([4]; laser-treated group increased about 300 times): significantly decreased
decrease of corneal surface curvature score vs CsA group ([5]; day 10): 40%
decrease of corneal surface curvature score vs DQS group ([5]; day 10): 33.3%
decrease of corneal surface curvature score vs HA group ([5]; day 10): 33.3%
decrease of corneal surface curvature score vs collagen group ([5]; day 10): 45.5%
decrease of corneal surface curvature score vs normal saline group ([5]; day 10): 40%
decrease of corneal surface curvature score vs dry stress (DS 10D) ([5]; day 10 after removal of dry stress): 53.8%
degree of curvature (irregularity score) of the corneal surface ([5]; day 10 after removal of dry stress, grades 0-5, normal 0.33±0.58, DS 10D 4.33±0.58): 2.0±0 points
expression of MMP-9 in the cornea [6]: inhibited
expression of inflammatory factors TNFα, IL-1β, IL-6 and ICAM-1 [6]: decreased
expression of macrophages in the cornea [6]: effectively inhibited
expression of CD31, FGF and VEGF in epithelium, subepithelium and matrix [7]: significant decreases
